Assay results taken from ChEMBL document CHEMBL5465560, “Selectivity Literature for EUbOPEN Chemogenomic Library” (2024).
Each block holds one molecule with its values, some of them ahead of it.

Legend:
[1] = biological target: Ribosomal protein S6 kinase alpha-6 (Homo sapiens, UniProt Q9UK32); experiment: Selectivity interaction (KinomeScan (DiscoverX)) EUB0001079a RPS6KA6; conditions: at 1 µM
[2] = biological target: T1, Inhibitor of nuclear factor kappa-B kinase subunit beta (Homo sapiens) (UniProt O14920); experiment: Selectivity interaction (Millipore kinase profiler) EUB0000124b IKBKB; conditions: at 10 µM
T1 sequence (whole entry): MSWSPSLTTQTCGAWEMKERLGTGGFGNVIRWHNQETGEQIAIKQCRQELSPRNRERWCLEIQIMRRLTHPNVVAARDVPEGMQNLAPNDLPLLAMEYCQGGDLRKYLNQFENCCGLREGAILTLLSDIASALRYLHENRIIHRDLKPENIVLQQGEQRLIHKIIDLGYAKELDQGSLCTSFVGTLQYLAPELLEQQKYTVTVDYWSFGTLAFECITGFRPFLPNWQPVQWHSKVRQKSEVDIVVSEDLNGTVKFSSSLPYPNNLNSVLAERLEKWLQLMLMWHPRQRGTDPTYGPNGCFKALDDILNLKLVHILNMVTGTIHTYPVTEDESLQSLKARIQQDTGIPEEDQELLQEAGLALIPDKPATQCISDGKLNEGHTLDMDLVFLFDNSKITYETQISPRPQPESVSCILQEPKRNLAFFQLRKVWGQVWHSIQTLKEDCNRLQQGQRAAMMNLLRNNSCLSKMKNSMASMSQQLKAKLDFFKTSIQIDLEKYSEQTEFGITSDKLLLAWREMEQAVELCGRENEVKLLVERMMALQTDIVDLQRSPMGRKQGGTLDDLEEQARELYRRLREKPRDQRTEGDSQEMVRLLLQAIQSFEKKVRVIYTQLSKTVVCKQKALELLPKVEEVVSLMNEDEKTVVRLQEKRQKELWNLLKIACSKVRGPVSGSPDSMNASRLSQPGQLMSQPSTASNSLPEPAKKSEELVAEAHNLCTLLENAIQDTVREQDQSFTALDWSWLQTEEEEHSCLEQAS

[3] = biological target: T2, Mitogen-activated protein kinase 12 (Homo sapiens) (UniProt P53778); experiment: Selectivity interaction (SelectScreen profiling (Invitrogen)) EUB0000607a MAPK12; conditions: at 2 µM
T2 sequence (whole entry): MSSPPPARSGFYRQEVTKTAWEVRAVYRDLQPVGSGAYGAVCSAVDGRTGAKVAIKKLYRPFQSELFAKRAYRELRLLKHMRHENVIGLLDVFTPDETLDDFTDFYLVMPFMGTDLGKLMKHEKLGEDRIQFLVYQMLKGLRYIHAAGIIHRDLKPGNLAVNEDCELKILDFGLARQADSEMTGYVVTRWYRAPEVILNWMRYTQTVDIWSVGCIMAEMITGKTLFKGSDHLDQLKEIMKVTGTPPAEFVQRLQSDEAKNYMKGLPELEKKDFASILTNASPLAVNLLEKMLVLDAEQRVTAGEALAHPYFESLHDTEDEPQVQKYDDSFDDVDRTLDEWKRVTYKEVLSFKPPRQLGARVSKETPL

[4] = biological target: Tyrosine-protein kinase JAK1 (Homo sapiens, UniProt P23458); experiment: Selectivity interaction (Kinase panel (KiNativ target engagement assay in Jurkat cells)) EUB0001635a JAK1; assay type: cell-based; conditions: Selectivity number of off-targets 0.0, Selectivity number of targets 233.0, Source Knowledge https://www.sciencedirect.com/science/article/pii/S2451945619300674?via%3Dihub, at 1 µM
[5] = biological target: Myosin light chain kinase, smooth muscle (Homo sapiens, UniProt Q15746); experiment: Selectivity interaction (Kinase panel (Invitrogen)) EUB0000639a MYLK; conditions: at 200 nM
[6] = biological target: T3, Dual specificity protein kinase TTK (Homo sapiens) (UniProt P33981); experiment: Selectivity interaction (KinomeScan (DiscoverX)) EUB0001049a TTK; conditions: at 1 µM
T3 sequence (whole entry): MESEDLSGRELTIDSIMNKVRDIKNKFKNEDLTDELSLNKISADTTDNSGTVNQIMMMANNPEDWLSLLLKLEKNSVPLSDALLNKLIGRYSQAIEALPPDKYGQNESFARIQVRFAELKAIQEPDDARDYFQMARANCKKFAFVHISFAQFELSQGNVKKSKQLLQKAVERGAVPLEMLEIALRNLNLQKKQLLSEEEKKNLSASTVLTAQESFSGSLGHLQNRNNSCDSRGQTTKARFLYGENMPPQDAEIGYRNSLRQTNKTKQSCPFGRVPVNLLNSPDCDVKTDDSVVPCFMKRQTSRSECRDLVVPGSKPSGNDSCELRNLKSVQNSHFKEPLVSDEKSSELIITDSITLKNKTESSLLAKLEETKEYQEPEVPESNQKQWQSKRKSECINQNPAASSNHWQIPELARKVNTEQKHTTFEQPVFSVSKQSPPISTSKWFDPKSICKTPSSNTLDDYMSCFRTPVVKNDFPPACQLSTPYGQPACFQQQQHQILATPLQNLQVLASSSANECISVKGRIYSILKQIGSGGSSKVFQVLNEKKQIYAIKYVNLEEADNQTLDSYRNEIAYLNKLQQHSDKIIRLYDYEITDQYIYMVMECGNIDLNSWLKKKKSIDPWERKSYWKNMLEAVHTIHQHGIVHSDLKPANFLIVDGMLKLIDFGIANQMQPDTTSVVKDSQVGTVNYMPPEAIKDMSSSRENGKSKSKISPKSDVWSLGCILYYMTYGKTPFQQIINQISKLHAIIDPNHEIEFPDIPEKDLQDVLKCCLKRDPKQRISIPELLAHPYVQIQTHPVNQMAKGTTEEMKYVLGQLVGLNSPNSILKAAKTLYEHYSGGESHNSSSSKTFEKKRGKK

[7] = biological target: T4, cAMP-dependent protein kinase catalytic subunit PRKX (Homo sapiens) (UniProt P51817); experiment: Selectivity interaction (Kinase panel (Z-LYTE Assay)) EUB0001632a PRKX; conditions: at 10 µM
T4 sequence (whole entry): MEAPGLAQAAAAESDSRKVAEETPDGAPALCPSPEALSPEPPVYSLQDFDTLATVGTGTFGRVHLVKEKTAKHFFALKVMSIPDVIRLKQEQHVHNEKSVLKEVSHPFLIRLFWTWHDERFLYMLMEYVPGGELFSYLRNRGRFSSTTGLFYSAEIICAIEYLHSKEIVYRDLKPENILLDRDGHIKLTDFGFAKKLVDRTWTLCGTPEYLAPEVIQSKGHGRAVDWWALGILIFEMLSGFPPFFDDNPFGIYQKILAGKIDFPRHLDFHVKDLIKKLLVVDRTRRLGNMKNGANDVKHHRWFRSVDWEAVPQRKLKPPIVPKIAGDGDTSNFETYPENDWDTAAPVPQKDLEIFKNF

Chain of Ribosomal protein S6 kinase alpha-6 (Q9UK32 whole entry): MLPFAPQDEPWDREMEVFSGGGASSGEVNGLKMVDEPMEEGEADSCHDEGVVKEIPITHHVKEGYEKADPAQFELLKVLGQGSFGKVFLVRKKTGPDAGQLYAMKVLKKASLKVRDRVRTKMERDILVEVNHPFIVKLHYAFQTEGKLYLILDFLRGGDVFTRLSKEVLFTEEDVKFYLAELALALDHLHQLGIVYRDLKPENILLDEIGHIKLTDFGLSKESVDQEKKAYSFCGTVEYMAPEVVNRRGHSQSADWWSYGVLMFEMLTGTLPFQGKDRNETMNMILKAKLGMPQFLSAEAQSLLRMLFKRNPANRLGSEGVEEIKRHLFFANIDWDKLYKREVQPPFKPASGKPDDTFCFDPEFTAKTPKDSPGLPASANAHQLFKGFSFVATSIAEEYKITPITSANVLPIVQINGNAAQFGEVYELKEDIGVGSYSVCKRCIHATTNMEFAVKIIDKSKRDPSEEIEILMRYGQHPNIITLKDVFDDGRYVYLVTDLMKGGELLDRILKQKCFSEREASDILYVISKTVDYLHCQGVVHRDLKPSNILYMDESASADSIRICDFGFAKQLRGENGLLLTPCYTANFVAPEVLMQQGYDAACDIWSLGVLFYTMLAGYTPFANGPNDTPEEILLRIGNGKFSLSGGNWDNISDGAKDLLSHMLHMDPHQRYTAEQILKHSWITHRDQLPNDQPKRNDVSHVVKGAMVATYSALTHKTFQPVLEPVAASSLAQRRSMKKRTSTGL
Chain of Tyrosine-protein kinase JAK1 (P23458 whole entry): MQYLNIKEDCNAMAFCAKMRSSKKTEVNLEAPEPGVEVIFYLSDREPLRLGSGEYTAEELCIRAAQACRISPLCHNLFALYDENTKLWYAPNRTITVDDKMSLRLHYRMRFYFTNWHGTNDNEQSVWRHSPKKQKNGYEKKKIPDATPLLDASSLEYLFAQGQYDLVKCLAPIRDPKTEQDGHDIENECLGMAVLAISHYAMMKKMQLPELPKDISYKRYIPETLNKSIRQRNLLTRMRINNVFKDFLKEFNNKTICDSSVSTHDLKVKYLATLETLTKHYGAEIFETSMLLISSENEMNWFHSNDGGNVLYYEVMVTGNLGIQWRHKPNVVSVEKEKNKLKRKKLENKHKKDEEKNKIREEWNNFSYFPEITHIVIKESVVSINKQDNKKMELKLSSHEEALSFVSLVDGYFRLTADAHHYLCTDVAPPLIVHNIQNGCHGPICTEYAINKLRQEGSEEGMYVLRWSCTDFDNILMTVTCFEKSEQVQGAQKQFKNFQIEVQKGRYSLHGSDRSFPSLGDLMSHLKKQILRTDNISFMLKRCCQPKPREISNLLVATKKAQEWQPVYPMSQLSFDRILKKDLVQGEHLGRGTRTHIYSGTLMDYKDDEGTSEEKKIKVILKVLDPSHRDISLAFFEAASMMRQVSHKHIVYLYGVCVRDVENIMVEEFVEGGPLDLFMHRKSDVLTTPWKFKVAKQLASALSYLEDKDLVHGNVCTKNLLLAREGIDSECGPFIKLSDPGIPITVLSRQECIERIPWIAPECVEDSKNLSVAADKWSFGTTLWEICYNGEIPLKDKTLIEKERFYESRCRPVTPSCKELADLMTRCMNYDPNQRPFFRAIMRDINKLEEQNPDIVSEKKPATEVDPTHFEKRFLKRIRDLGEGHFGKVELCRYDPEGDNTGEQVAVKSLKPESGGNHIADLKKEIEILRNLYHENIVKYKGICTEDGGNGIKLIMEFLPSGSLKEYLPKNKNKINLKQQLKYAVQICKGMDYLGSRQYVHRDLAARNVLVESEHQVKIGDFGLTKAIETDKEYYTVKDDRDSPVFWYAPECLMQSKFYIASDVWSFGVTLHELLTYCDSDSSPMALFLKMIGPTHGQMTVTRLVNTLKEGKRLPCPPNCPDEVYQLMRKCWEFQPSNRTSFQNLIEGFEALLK
Chain of Myosin light chain kinase, smooth muscle (Q15746 whole entry): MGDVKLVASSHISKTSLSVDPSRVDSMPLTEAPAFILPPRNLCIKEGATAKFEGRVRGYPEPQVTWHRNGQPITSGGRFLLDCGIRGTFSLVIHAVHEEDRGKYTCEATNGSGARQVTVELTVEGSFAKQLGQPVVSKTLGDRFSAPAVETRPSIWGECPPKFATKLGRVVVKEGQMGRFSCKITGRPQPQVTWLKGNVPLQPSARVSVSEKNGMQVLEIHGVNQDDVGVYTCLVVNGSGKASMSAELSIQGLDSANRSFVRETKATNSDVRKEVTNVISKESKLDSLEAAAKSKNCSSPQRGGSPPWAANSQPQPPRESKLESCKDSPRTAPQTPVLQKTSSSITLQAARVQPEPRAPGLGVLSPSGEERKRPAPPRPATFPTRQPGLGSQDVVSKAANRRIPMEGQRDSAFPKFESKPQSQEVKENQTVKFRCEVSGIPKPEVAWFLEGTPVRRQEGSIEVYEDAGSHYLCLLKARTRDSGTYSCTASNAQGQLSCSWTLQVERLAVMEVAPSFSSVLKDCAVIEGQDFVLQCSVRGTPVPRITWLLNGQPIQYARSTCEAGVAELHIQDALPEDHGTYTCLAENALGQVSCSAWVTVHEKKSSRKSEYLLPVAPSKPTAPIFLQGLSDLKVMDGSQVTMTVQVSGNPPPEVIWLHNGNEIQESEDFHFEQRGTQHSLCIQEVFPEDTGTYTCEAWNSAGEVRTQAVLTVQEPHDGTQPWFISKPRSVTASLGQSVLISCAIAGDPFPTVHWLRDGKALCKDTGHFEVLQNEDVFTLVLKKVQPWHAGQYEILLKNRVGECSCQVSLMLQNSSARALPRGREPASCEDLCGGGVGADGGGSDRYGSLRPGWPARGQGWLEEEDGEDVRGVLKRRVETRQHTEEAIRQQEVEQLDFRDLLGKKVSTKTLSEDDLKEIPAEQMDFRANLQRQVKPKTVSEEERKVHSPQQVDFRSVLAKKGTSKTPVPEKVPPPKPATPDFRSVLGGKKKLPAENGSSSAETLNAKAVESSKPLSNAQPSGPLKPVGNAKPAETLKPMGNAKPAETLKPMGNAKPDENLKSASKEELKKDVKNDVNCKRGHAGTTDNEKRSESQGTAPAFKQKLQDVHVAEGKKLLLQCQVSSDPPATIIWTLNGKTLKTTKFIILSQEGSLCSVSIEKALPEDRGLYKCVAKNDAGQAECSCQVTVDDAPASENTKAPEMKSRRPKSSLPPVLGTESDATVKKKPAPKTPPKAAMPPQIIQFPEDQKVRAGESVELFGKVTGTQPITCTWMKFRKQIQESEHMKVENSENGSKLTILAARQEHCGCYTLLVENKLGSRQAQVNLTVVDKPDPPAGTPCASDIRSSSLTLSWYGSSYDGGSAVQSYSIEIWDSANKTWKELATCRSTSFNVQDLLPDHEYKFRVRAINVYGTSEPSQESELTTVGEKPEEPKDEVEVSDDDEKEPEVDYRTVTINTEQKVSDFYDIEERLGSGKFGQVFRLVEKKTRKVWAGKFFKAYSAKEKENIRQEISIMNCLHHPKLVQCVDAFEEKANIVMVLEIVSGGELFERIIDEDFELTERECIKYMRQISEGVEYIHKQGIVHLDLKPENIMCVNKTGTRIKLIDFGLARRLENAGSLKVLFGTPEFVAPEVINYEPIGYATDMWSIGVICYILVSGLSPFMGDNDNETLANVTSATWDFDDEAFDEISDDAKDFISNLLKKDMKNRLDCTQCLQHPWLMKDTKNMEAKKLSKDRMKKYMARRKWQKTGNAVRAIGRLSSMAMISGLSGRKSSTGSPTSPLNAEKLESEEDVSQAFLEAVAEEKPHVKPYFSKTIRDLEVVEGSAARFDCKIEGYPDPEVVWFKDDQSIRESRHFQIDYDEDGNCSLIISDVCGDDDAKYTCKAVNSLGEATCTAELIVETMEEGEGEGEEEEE

Compound: Nc1cnc(N2CCc3cc(S(=O)(=O)Nc4c(F)cc(Cl)cc4F)cc(N4CCCC4=O)c32)nc1 [TP-020n]
% of control [1]: 86%

% of control [2]: 111%
Compound: CC(=O)Nc1cccc(-n2c(=O)n(C3CC3)c(=O)c3c(Nc4ccc(I)cc4F)n(C)c(=O)c(C)c32)c1

Compound: CNC(=O)Nc1ccc(-c2nc(N3CC4CCC(C3)O4)c3cnn(C4CCC5(CC4)OCCO5)c3n2)cc1
% of inhibition [3]: -2%

Compound: C=CC(=O)Nc1ccc(C(=O)Nc2[nH]nc3c2CN(C(=O)N[C@H](CN(C)C)c2ccccc2)C3(C)C)cc1
% of engagement [4]: 7.9%

% of inhibition [5]: 8.89%
Compound: CC[C@@H]1[C@H](F)C(=O)N[C@@H]1COc1nccc2cc(C(N)=O)c(OC)cc12 [ZIMLOVISERTIB]

Compound: COc1cc(Nc2nc(C)cc(-c3cnn4nc(OC)ccc34)n2)cc(C(F)(F)F)c1
% of control [6]: 90%

% of control [7]: 2.85%
Compound: Cn1cc(-n2cnc3c(NCc4nc5cc(Cl)c(Cl)cc5[nH]4)nc(N4CCOCC4)nc32)cn1
